{"source": "patent US5246935A", "about": "“Piperazinyl derivatives and methods of treating central nervous system ailments relating to the 5-HT2 receptor system” (Novo Nordisk A/S, priority 1990, dated 1993)", "system": "acetic acid-induced writhings in mice", "assay": "Antagonism of Acetic Acid-Induced Writhings In Mice", "assay_type": "in vivo, mouse (NMRI)", "conditions": "Mus musculus, sc; s.c. 30 min before acetic acid 0.5 per cent i.p.; 50 per cent protection", "procedure": "Antagonism of Acetic Acid-Induced Writhings In Mice\nIn mice i.p. injection of acetic acid induces a writhing syndrome which is antagonized by analgesics (Siegmund et al., 1957; Eckhardt et al., 1957).\nAcetic acid 0.5 per cent is injected i.p. (0.15 ml/10 g body weight) to 6 mice (NMRI, either sex weighing 20-25 g) pretreated with physiological saline (controls) and to 6 mice pretreated with test substance. In the controls acetic acid induces a syndrome characterized by contraction of abdomen, turning of trunk and extension of hind limbs. Saline and test substances are administered s.c. 30 min. before acetic acid. The number of writhings is counted 5-15 min. after injection of acetic acid.\nThe activity is expressed as per cent protection: [formula]\nThe effect of active substances is evaluated by a dose response curve, log dose on the abscissa, and per cent protection on the ordinate. The potency is expressed as the dose (ED50 in mg/kg giving 50 per cent protection against writhings.\nThis test is used as a screening test for analgesics. Additional results from other screening tests are required to exclude active anti-writhing substances without analgesic effect.", "data": [{"compound": "COc1cc(NC(=O)OCCCN2CCN(c3ccccc3Cl)CC2)cc(OC)c1OC.Cl", "note": "[Example 3, 4-(2-Chlorophenyl)-1-[3-(3,4,5-trimethoxyphenylcarbamoyloxy)propyl]piperazine, hydrochloride]", "values": [{"measurement": "ED50", "value": 12, "unit": "mg/kg"}]}]}
